The test system of one assay is CD4+ CD25− T cells. Put plainly: CD4+ T cell proliferation, CD25 upregulation, cytokine production and Th1/Th2/iTreg differentiation. It is filed as cell-based, mouse. How it is done:
The dose-response of HF on CD4+ T cell proliferation, activation (i.e. CD25 upregulation) and differentiation to Th1, Th2 and Th17 lineages were evaluated. Purified murine naïve CD4+ CD25− T cells were activated using anti-CD3 (0.3 μg/ml) and anti-CD28 (0.5 μg/ml) antibodies and varying amounts of HF was added to each T cell culture condition (1.25 nM-40 nM). CD4+ T cell proliferation was monitored by CFSE dilution on day 3-post activation and CD25 expression was evaluated by FACS staining 2 days after activation. For T cell differentiation experiments, naïve T cells were activated as above in the presence of Th1 (IL-12 (20 ng/ml) plus anti-IL-4 (10 μg/ml)), Th2 (IL-4 (50 ng/ml) plus anti-IFNγ (0.5 mg/ml)) or Th17 (TGFβ (3 ng/ml) plus IL-6 (30 ng/ml)) polarizing conditions plus titrating amounts of HF (1.25 nM-40 nM) or MAZ1310 (40 nM). The percentage of Th17 cells, (IL-17^+ IFNγ^−) was evaluated on day 3 following activation, whereas the abundance of Th1 cells (IFNγ^+ IL-4) and Th2 cells (IL-4^+ IFNγ^−) was determined 5 days following activation. All cytokine expression was determined by intracellular staining following PMA+Ionomycin+Brefeldin A re-stimulation and all data was normalized to control (MAZ1310)-treated cells. […] Biol., vol. 80:1-8 (2006).
Cytokines, antibodies and T cell culture: Purified CD4^+ CD25^− T cells were activated in vitro as previously described (I. M. Djuretic et al., Nat Immunol 8, 145 (2007)) using 0.3 μg/ml hamster anti-mouse CD3 (clone 145-2C11) (ATCC—Manassas, Va.) and 0.5 μg/ml hamster anti-mouse CD28 (BD Pharmingen, San Jose, Calif.). Activated cell cultures were differentiated using the following combinations of cytokines and antibodies: iTreg=recombinant human TGFβ1 (3 ng/ml; R&D systems, Minneapolis, Minn.), Th17βTGFβ1 (3 ng/ml) plus recombinant mouse IL-6 (30 ng/ml, R&D systems). Th1 and Th2 differentiation was performed as previously described. (I. M. Djuretic et al., Nat Immunol 8, 145 (2007)). Human IL-2 supernatant (National Cancer Institute) was used in culture at 0.01 U/ml and was added at 48 hours-post activation when T cells were split into tissue culture wells lacking CD3 and CD28 antibodies, with the exception of Th17 cultures that were maintained in the absence of IL-2. All reagents were added at the time of T cell activation and again at 48-hours post activation unless indicated otherwise. For some experiments, purified CD4^+ CD25^− T cells, CD8^+ T cells or B cells were labeled with 1 μM CFSE (Invitrogen) prior to activation in accordance with manufacturers instructions.
Detection of cytokine production: Cytokines secreted into media supernatant were measured using the mouse Th1/Th2 cytometric bead array (CBA, BD Pharmingen) in accordance with manufacturers instructions. […]

Assay [1] concerns Asns, Gpt2, eIF4Ebp1 mRNA. The assay can be described thus: Quantitative real-time PCR of AAR-associated genes in T cells. It is filed as cell-based, mouse. The following applies: 10 nM HF, within 4 hours of T cell activation. As to the method:
FIG. 12C is a graph depicting the results of quantitative real-time PCR performed on cDNA generated from resting naïve T cells (TN) or T cells activated for 4 hours in the presence of 10 nM MAZ1310 or 10 nM HF. Asns, Gpt2 or eIF4Ebp1 mRNA expression was normalized to Hprt levels and data are presented as mean values±SD in duplicate samples.
Quantitative real-time PCR: T cells were activated as described above, collected at the indicated times and pellets were flash-frozen in liquid nitrogen. Total RNA was obtained by RNeasy (Quiagen, Valencia, Calif.) column purification per manufacturers instructions. RORγt expression was determined after reverse transcription using the message sensor kit (Ambion, Austin, Tex.) per manufacturers instructions and taqman primers and probe as described elsewhere (I. Ivanov, et al., Cell 126, 1121, 2006). Sybrgreen quantitative real-time PCR was performed on T cell RNA samples following reverse transcription via SuperScript II first-strand cDNA synthesis kit (Invitrogen, Carlsbad, Calif.). All PCR data was collected on an iCycler thermal cycler (Biorad, Hercules, Calif.). Primer sequences used for detecting stress response genes are listed below.

SMILES strings stand for the structures.

On to `O=C(CC1NCCCC1O)Cn1cnc2cc(Br)c(Cl)cc2c1=O` (racemic) [HF, 7-bromo-6-chloro-3-[3-(3-hydroxy-2-piperidinyl)-2-oxopropyl]-4(3H)-quinazolinone], for which, in the assay on CD4+ CD25− T cells (CD4+ T cell, CD8+ T cell and B220+ B cell, listed as halofuginone), the “concentration inducing general inhibition of T and B cell activation, proliferation and effector function” value is 20 to 40 nM. The “effect on T cell proliferation, CD25 upregulation or production of IL-2, TNF or IFNγ, in words” value in the assay on CD4+ CD25− T cells (low concentrations of HF (1-10 nM)) was “did not affect”. Moreover, in the assay with CD4+ CD25− T cells (low-dose HF), the “effect on Th1, Th2 or iTreg differentiation (IFNγ, IL-4 or Foxp3 expression), in words” value is listed as “failed to modulate”. Moreover, the “Asns, Gpt2, eIF4Ebp1 mRNA (qPCR), in words” value in assay [1] is “induced”.

The record behind these values is US20110212100A1, “METHODS FOR MODULATING DEVELOPMENT AND EXPANSION OF IL-17 EXPRESSING CELLS” (priority 2007, published 2011).
